Experimental data published in EP2017264A1, “Substituted phenyl propargyl compounds, method for their manufacture and their use as herbicides and plant growth regulators” (BAYER CROPSCIENCE AG, priority 2007, dated 2009).

Tests used:
[1] = tested on: Echinochloa crus-galli, Setaria viridis, Stellaria media und Veronica persica; experiment: Pre-emergence weed control, greenhouse pot test; assay type: in vivo; details: Aufwandmenge von 1,28 kg oder weniger Aktivsubstanz pro Hektar, visual rating after 3 bis 4 Wochen vs untreated controls
Source text: Samen bzw. Rhizomstücke von mono- und dikotylen Unkrautpflanzen wurden in Plastiktöpfen in sandiger Lehmerde ausgelegt und mit Erde abgedeckt. Die in Form von benetzbaren Pulvern oder Emulsionskonzentraten formulierten erfindungsgemäßen Verbindungen wurden dann als wäßrige Suspension bzw. Emulsion mit einer Wasseraufwandmenge von umgerechnet 600 bis 800 l/ha in unterschiedlichen Dosierungen auf die Oberfläche der Abdeckerde appliziert.
Nach der Behandlung wurden die Töpfe im Gewächshaus aufgestellt und unter guten Wachstumsbedingungen für die Unkräuter gehalten. Die optische Bonitur der Pflanzen- bzw. Auflaufschäden erfolgte nach dem Auflaufen der Versuchspflanzen nach einer Versuchszeit von 3 bis 4 Wochen im Vergleich zu unbehandelten Kontrollen. Wie die Testergebnisse zeigten, wiesen die erfindungsgemäßen Verbindungen eine gute herbizide Vorauflaufwirksamkeit gegen ein breites Spektrum von Ungräsern und Unkräutern auf.

[2] = tested on: Echinochloa crus-galli, Setaria viridis, Abuthilon theophrasti, Amaranthus retroflexus und Veronica persica; experiment: Post-emergence weed control, greenhouse pot test; assay type: in vivo; details: three-leaf stage, Aufwandmenge von 1,28 kg und weniger Aktivsubstanz pro Hektar, visual rating after ca. 3 bis 4 Wochen vs untreated controls
Source text: Samen bzw. Rhizomstücke von mono- und dikotylen Unkräutern wurden in Plastiktöpfen in sandigem Lehmboden ausgelegt, mit Erde abgedeckt und im Gewächshaus unter guten Wachstumsbedingungen angezogen. Drei Wochen nach der Aussaat wurden die Versuchspflanzen im Dreiblattstadium behandelt. Die als Spritzpulver bzw. als Emulsionskonzentrate formulierten erfindungsgemäßen Verbindungen wurden in verschiedenen Dosierungen mit einer Wasseraufwandmenge von umgerechnet 600 bis 800 I/ha auf die grünen Pflanzenteile gesprüht. Nach ca. 3 bis 4 Wochen Standzeit der Versuchspflanzen im Gewächshaus unter optimalen Wachstumsbedingungen wurde die Wirkung der Präparate optisch im Vergleich zu unbehandelten Kontrollen bonitiert. Die erfindungsgemäßen Mittel wiesen auch im Nachauflauf eine gute herbizide Wirksamkeit gegen ein breites Spektrum wirtschaftlich wichtiger Ungräser und Unkräuter auf. Beispielsweise zeigten die Beispiele Nr.

Protocol for physchem: "LogP" = Verteilungskoeffizient in einem Zweiphasengemisch aus n-Octanol und Wasser.
Die log P-Daten wurden in Übereinstimmung mit der EEC Direktive 79/831, Anlage V.A8 (Annex V.A8) mittels HPLC (High Performance Liquid Chromatography) auf einer Umkehrphase-Säule (reversed-phase column) (C18) mit folgenden Methoden bestimmt: Temperatur: 40°C; Mobile Phase: 0,1 % bzw. 0,06 %ige wässrige Ameisensäure oder 0,1 % wässriger Phosphorsäure und Acetonitril; linearer Gradient von 10% Acetonitril bis 90% bzw. 95 % Acetonitril. Die Kalibrierung wurde ausgeführt mit Hilfe unverzweigter Alkan-2-one (bestehend aus 3 bis 13 bzw.16 Kohlenstoff-Atomen) mit bekannten IogP-Werten (Bestimmung der IogP-Werte über die Retentionszeiten mittels linearer Interpolation zwischen zwei nachfolgenden Alkanonen).

## CCOc1ccc(C=NOCC#Cc2cccc(SC)c2)cn1 [Beispiel 5.190]
[1]
  herbizide Wirkung gegen Schadpflanzen im Vorauflaufverfahren: sehr gute herbizide Wirkung
[2]
  herbizide Wirkung gegen Schadpflanzen im Nachauflaufverfahren: sehr gute herbizide Wirkung
physchem
  chromatographic logP: 4.42

## COc1ncc(C=NOCC#Cc2cccc(SC)c2)cc1F [Beispiel 5.040]
[1]
  herbizide Wirkung gegen Schadpflanzen im Vorauflaufverfahren: sehr gute herbizide Wirkung
[2]
  herbizide Wirkung gegen Schadpflanzen im Nachauflaufverfahren: sehr gute herbizide Wirkung
physchem
  chromatographic logP: 4.23

## Cc1cccc(C=NOC(C)C#Cc2cccc([S+](C)[O-])c2)n1 (stereo not drawn) [Beispiel 3.086]
[1]
  herbizide Wirkung gegen Schadpflanzen im Vorauflaufverfahren: sehr gute herbizide Wirkung
[2]
  herbizide Wirkung gegen Schadpflanzen im Nachauflaufverfahren: sehr gute herbizide Wirkung
physchem
  chromatographic logP: 1.57

## COc1ccccc1C=NOC(C)C#Cc1cccc(SC)c1 (stereo not drawn) [Beispiel 1.301]
[1]
  herbizide Wirkung gegen Schadpflanzen im Vorauflaufverfahren: sehr gute herbizide Wirkung
[2]
  herbizide Wirkung gegen Schadpflanzen im Nachauflaufverfahren: sehr gute herbizide Wirkung
physchem
  chromatographic logP: 4.85

## COc1ccc(C=NOCC#Cc2cccc(SC)c2)cn1 [Beispiel 5.120]
[1]
  herbizide Wirkung gegen Schadpflanzen im Vorauflaufverfahren: sehr gute herbizide Wirkung
[2]
  herbizide Wirkung gegen Schadpflanzen im Nachauflaufverfahren: sehr gute herbizide Wirkung
physchem
  chromatographic logP: 4

## CSc1ccc(C=NOCC#Cc2cccc([S+](C)[O-])c2)cn1 (stereo not drawn) [Beispiel 5.188]
[2]
  herbizide Wirkung gegen Schadpflanzen im Nachauflaufverfahren: sehr gute herbizide Wirkung
physchem
  chromatographic logP: 2.23

## COc1ncc(C=NOCC#Cc2cccc([S+](C)[O-])c2)cc1F (stereo not drawn) [Beispiel 5.041]
[1]
  herbizide Wirkung gegen Schadpflanzen im Vorauflaufverfahren: sehr gute herbizide Wirkung
[2]
  herbizide Wirkung gegen Schadpflanzen im Nachauflaufverfahren: sehr gute herbizide Wirkung
physchem
  chromatographic logP: 2.28

## COc1ccc(C=NOCC#Cc2cccc([S+](C)[O-])c2)c(OC)n1 (stereo not drawn) [Beispiel 5.185]
[2]
  herbizide Wirkung gegen Schadpflanzen im Nachauflaufverfahren: sehr gute herbizide Wirkung
physchem
  chromatographic logP: 2.89

## COc1cc(F)ccc1C=NOCC#Cc1cc(SC)c(F)c(SC)c1 [Beispiel 1.449]
physchem
  chromatographic logP: 5.17

## COc1ncc(C=NOCC#Cc2cc(SC)c(F)c(SC)c2)cc1F [Beispiel 5.198]
physchem
  chromatographic logP: 4.65

## COc1cc(F)ccc1C=NOCC#Cc1ccc(OC)c(SC)c1 [Beispiel 1.433]
physchem
  chromatographic logP: 4.32

## COc1ncc(Cl)nc1C=NOCC#Cc1cccc(SC)c1 [Beispiel 4.092]
physchem
  chromatographic logP: 4.03

## CCSc1cc(C#CCON=Cc2ccccc2OC)ccc1OC [Beispiel 1.398]
physchem
  chromatographic logP: 4.45

## COc1cccc(OC)c1C=NOCC#Cc1cccc(CC#N)c1 [Beispiel 1.397]
physchem
  chromatographic logP: 2.86

## COc1nc(Cl)cnc1C=NOCC#Cc1cccc([S+](C)[O-])c1 (stereo not drawn) [Beispiel 4.106]
physchem
  chromatographic logP: 2.21

## COc1ccc(C=NOCC#Cc2cccc(SC)c2)c(OC)n1 [Beispiel 5.183]
physchem
  chromatographic logP: 4.93

## COc1ccc(C=NOCC#Cc2ccc(F)c(SC)c2)cn1 [Beispiel 5.125]
physchem
  chromatographic logP: 2.94

## COc1ccc(C=NOCC#Cc2ccc(F)c(SC)c2F)cn1 [Beispiel 5.139]
physchem
  chromatographic logP: 4.1

## CSc1cccc(C#CCON=Cc2ccc(OC(C)C)nc2)c1 [Beispiel 5.177]
[1]
  herbizide Wirkung gegen Schadpflanzen im Vorauflaufverfahren: sehr gute herbizide Wirkung
[2]
  herbizide Wirkung gegen Schadpflanzen im Nachauflaufverfahren: sehr gute herbizide Wirkung
physchem
  chromatographic logP: 4.87

## CCSc1cc(C#CCON=Cc2ccc(OC)nc2)ccc1C [Beispiel 5.133]
physchem
  chromatographic logP: 4.9

## COc1cccc(OC)c1C=NOCC#Cc1cccc(SC)c1 [Beispiel 1.393]
physchem
  chromatographic logP: 3.77

## CCC(=NOCC#Cc1cccc(CC#N)c1)c1ccccc1F [Beispiel 1.418]
physchem
  chromatographic logP: 3.72

## CCOc1ccc(C=NOCC#Cc2cccc([S+](C)[O-])c2)cn1 (stereo not drawn) [Beispiel 5.189]
[1]
  herbizide Wirkung gegen Schadpflanzen im Vorauflaufverfahren: sehr gute herbizide Wirkung
[2]
  herbizide Wirkung gegen Schadpflanzen im Nachauflaufverfahren: sehr gute herbizide Wirkung
physchem
  chromatographic logP: 2.42

## CSc1nccnc1C=NOCC#Cc1cccc(CC#N)c1 [Beispiel 4.080]
physchem
  chromatographic logP: 2.99

## COc1ccc(C=NOCC#Cc2ccc(F)c(F)c2)cn1 [Beispiel 5.141]
physchem
  chromatographic logP: 3.83

## COc1cc(F)ccc1C=NOCC#Cc1ccc(F)c(F)c1SC [Beispiel 1.447]
physchem
  chromatographic logP: 4.58

## CSc1cccc(C#CCON=C(C)c2cccc(C)n2)c1 [Beispiel 3.091]
physchem
  chromatographic logP: 4.18

## CCSc1cccc(C#CCON=Cc2ccccc2OC)c1 [Beispiel 1.056]
physchem
  chromatographic logP: 4.9

## COc1cc(F)ccc1C=NOCC#Cc1cc(C)c(F)c([S+](C)[O-])c1 (stereo not drawn) [Beispiel 1.443]
physchem
  chromatographic logP: 3.43

## N#CCc1cccc(C#CCON=Cc2ccc(C3CCCC3)nc2)c1 [Beispiel 5.195]
physchem
  chromatographic logP: 4.27

## COc1ccccc1-c1ccn(CC#Cc2cccc(SC)c2)n1 [Beispiel 6.050]
physchem
  chromatographic logP: 3.43

## COc1ccccc1C=NOCC#Cc1ccc(F)c(SC)c1F [Beispiel 1.436]
physchem
  chromatographic logP: 4.48

## COc1nc(Cl)cnc1C=NOCC#Cc1cccc(SC)c1 [Beispiel 4.100]
physchem
  chromatographic logP: 4.03

## COc1ccccc1C=NOCC#Cc1cccc(SC(C)C)c1 [Beispiel 1.430]
physchem
  chromatographic logP: 5.24

## COc1ccc(C=NOCC#Cc2ccccc2SC)cn1 [Beispiel 5.143]
physchem
  chromatographic logP: 3.79

## COc1ccccc1C=NOCC#Cc1ccc(F)c(SC)c1 [Beispiel 1.053]
physchem
  chromatographic logP: 4.51

## C=CCSc1cccc(C#CCON=Cc2ccc(F)cc2OC)c1 [Beispiel 1.432]
physchem
  chromatographic logP: 5.24

## COc1ccccc1C=NOCC#Cc1cccc(F)c1F [Beispiel 1.439]
physchem
  chromatographic logP: 4.29

## CC(=NOCC#Cc1cccc([S+](C)[O-])c1)c1cccc(C)n1 (stereo not drawn) [Beispiel 3.092]
physchem
  chromatographic logP: 1.75

## CCC(=NOCC#Cc1cccc(CC#N)c1)c1ccc(C)cc1 [Beispiel 1.410]
physchem
  chromatographic logP: 4.18

## COc1ccc(C=NOCC#Cc2cc(C)c(F)c([S+](C)[O-])c2)cn1 (stereo not drawn) [Beispiel 5.144]
physchem
  chromatographic logP: 2.76

## COc1cc(F)ccc1C=NOCC#Cc1ccc(F)c(SC)c1 [Beispiel 1.066]
physchem
  chromatographic logP: 4.58

## COc1ccccc1C=NOCC#Cc1cccc([S+]([O-])C(F)(F)F)c1 (stereo not drawn) [Beispiel 1.380]
physchem
  chromatographic logP: 3.88

## COc1ccc(C=NOCC#Cc2cccc(OC(F)(F)F)c2)cn1 [Beispiel 5.135]
physchem
  chromatographic logP: 4.26

## CCOc1nc(C=NOCC#Cc2cccc([S+](C)[O-])c2)ccc1F (stereo not drawn) [Beispiel 3.126]
physchem
  chromatographic logP: 2.78

## COc1cc(F)ccc1C=NOCC#Cc1cccc(SC(C)C)c1 [Beispiel 1.431]
physchem
  chromatographic logP: 5.26

## COc1ccc(C=NOCC#Cc2cccc(CC#N)c2)c(OC)c1 [Beispiel 1.387]
physchem
  chromatographic logP: 3.22

## CCC(=NOCC#Cc1cccc([S+](C)[O-])c1)c1ccc(F)cc1 (stereo not drawn) [Beispiel 1.423]
physchem
  chromatographic logP: 3.14

## COc1ccc(C=NOCC#Cc2ccc(F)c(F)c2SC)cn1 [Beispiel 5.146]
physchem
  chromatographic logP: 4.11

## COc1cccc(OC)c1C=NOCC#Cc1cccc([S+](C)[O-])c1 (stereo not drawn) [Beispiel 1.396]
physchem
  chromatographic logP: 2.04

## CC(C)Oc1ccc(C=NOCC#Cc2cccc([S+](C)[O-])c2)cn1 (stereo not drawn) [Beispiel 5.181]
[1]
  herbizide Wirkung gegen Schadpflanzen im Vorauflaufverfahren: sehr gute herbizide Wirkung
[2]
  herbizide Wirkung gegen Schadpflanzen im Nachauflaufverfahren: sehr gute herbizide Wirkung
physchem
  chromatographic logP: 2.77

## COc1ccc(C=NOCC#Cc2ccc(OC)c(SC)c2)cn1 [Beispiel 5.138]
physchem
  chromatographic logP: 3.83

## CCC(=NOCC#Cc1cccc(C(F)(F)F)c1)c1ccccc1 [Beispiel 1.404]
physchem
  chromatographic logP: 5.13

## CC(C)Oc1ccc(C=NOCC#Cc2cccc(CC#N)c2)cn1 [Beispiel 5.178]
physchem
  chromatographic logP: 3.69

## CCC(=NOCC#Cc1cccc(C(F)(F)F)c1)c1ccc(C)cc1 [Beispiel 1.408]
physchem
  chromatographic logP: 5.53
